{
  "source": "patent US20100244818A1",
  "about": "“APPARATUS AND METHOD FOR TRANSDUCING AN IN VITRO OR MAMMALIAN SYSTEM WITH A LOW-FREQUENCY SIGNAL” (priority 2006, published 2010)",
  "key": {"[1]": {"tested_on": "tubulin", "test": "tubulin aggregation (polymerization) assay, OD 340 nm", "format": "biochemical", "from_the_text": "This assay has been described, for example, in Shelanski, M. L., Gaskin, F. and Cantor, C. R. (1973). Microtubule assembly in the absence of added nucleotides. Proc. Natl. Acad. Sci. U.S.A. 70, 765-768; and Lee, J. C. and Timasheff, S. N. (1977). In vitro reconstitution of calf brain microtubules: effects of solution variable. Biochemistry, 16, 1754-1762.\nThe assay protocol was designed for performing a single assay in a cuvette using a spectrophotometer set at 340 nm in a kinetic mode. HTS-Tubulin was purchased from Cytoskeleton, Inc. and is supplied in multiple vials as lyophilized protein. […]\nThe tubulin-assembly reaction was carried out by exposing the tubulin in GPEM buffer, at a concentration of 1.5 mg/ml to the following polymerization conditions: (i) a buffer (control), (ii) tubulin alone (2nd control); (iii) taxol, added to a final concentration of 4 μM, and (iv) the M2(3) taxol signal from above, transduced over a 20 minute period at a transduction voltage calculated to produce an approximately 1.693294 mG magnetic field. Change in optical absorption at 340 nm was measured continuously for each sample, and the OD340 data was used to calculate a rate of tubulin polymerization (dA/minute at 340 nm) at each one minute interval during the transduction study.\nThe Vmax of the reaction was also calculated for each sample at the end of the 20 minute assay period. […]"}, "[2]": {"details": "the compound itself; not examined in the study; cited from earlier work"}},
  "data": [
    {"smiles": "CC(=O)O[C@H]1C(=O)[C@@]2(C)[C@H]([C@H](OC(=O)c3ccccc3)[C@]3(O)C[C@H](OC(=O)[C@H](O)[C@@H](NC(=O)c4ccccc4)c4ccccc4)C(C)=C1C3(C)C)[C@]1(OC(C)=O)CO[C@@H]1C[C@@H]2O", "note": "[taxol]", "values": [
      {"measurement": "rate of tubulin polymerization (dA/minute at 340 nm)", "setting": "[1]; at two minutes, taxol 4 μM, FIG. 16B", "value": "increased significantly"},
      {"measurement": "Vmax (single composite, maximum rate of reaction over the entire assay)", "setting": "[1]; taxol at 4 μM, tubulin 1.5 mg/ml in GPEM buffer, end of 20 minute assay, FIG. 17", "value": "~1.8"},
      {"measurement": "delivery to the brain", "setting": "[2]", "value": "poorly deliver to the brain"}
    ]}
  ]
}
